What all share (format): cell-based
The target of one assay is T1, human TLR7 (Homo sapiens, UniProt Q9NYK1).
T1 sequence (Q9NYK1 27-1049): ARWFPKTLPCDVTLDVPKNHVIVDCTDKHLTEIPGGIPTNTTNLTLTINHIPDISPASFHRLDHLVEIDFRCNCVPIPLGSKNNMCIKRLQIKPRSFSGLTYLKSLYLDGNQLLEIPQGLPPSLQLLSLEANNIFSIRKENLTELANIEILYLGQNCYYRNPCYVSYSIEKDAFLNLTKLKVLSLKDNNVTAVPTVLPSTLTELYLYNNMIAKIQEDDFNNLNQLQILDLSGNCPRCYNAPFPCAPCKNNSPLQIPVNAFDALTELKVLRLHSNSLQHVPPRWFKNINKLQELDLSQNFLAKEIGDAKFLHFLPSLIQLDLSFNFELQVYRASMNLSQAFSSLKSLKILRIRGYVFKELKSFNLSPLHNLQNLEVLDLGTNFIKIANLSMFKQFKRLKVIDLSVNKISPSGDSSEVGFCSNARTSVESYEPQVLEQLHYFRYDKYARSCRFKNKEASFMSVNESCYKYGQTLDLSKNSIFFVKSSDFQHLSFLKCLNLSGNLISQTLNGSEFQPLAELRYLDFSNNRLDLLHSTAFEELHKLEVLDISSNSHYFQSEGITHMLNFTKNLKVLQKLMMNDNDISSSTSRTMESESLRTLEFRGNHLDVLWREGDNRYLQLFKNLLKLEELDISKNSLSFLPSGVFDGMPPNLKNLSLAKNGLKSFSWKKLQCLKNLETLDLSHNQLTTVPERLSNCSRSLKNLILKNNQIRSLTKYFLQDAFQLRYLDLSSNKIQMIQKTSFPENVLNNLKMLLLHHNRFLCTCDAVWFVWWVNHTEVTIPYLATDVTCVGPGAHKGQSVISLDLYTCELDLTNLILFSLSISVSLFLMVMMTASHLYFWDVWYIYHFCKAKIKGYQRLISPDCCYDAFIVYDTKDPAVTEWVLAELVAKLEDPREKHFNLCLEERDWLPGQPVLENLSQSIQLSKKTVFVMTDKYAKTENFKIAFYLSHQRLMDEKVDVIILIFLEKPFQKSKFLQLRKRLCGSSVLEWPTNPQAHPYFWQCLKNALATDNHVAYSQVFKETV
Put plainly: TLR7 inhibition reporter assay (HEK-Blue cells, SEAP reporter). Particulars: HEK-Blue cells overexpressing human TLR7; stimulated with gardiquimod 7.5 μM; 22 hour incubation; SEAP readout. Summed up: (§1)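 HEK-Blue cells with NF-κB/AP-1-driven SEAP pre-treated 30 min with compound (0.05 nM–50 μM), then stimulated with gardiquimod 7.5 μM (TLR7), R848 15.9 μM (TLR8) or ODN2006 5 nM (TLR9). SEAP detected after 22 h at 37 °C; percent inhibition relative to agonist-plus-DMSO and known-inhibitor wells.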
A general note: In a reporter assay the amount or activity of a reporter protein is the signal.

The next assay deals with T2, human TLR8 (Homo sapiens, UniProt Q9NR97).
T2 sequence (Q9NR97 27-1041): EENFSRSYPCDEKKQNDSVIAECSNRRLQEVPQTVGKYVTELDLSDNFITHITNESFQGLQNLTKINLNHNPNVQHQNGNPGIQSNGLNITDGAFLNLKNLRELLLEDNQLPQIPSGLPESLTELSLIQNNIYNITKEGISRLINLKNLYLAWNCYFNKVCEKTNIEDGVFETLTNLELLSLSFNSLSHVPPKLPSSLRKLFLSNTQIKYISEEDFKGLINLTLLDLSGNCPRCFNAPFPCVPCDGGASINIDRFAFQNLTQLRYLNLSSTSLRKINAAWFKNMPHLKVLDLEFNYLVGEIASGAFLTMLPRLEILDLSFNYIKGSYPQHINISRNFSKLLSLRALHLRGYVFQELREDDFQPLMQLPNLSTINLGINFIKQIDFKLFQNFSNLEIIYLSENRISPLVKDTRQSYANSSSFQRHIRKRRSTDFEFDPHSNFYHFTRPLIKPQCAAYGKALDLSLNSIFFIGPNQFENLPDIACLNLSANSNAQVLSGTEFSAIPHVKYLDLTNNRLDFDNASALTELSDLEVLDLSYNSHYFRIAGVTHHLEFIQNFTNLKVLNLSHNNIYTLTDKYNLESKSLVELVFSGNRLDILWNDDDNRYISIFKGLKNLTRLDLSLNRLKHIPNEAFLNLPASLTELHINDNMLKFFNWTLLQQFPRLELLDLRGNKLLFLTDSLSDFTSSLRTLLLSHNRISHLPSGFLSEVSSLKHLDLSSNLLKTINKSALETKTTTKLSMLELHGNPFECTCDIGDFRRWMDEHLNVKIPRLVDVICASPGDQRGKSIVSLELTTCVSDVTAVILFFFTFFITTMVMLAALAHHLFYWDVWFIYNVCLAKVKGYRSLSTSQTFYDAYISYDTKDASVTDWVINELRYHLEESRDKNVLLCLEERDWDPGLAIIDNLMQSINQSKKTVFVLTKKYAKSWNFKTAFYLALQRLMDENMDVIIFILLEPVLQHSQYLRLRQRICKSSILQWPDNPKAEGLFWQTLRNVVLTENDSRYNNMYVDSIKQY
The assay is described as follows: TLR8 inhibition reporter assay (HEK-Blue cells, SEAP reporter). Particulars: HEK-Blue cells overexpressing human TLR8; stimulated with R848 15.9 μM; 22 hour incubation; SEAP readout. Summed up: as §1

The next assay addresses T3, human TLR9 (Homo sapiens, UniProt Q9NR96).
T3 sequence (Q9NR96 26-1032): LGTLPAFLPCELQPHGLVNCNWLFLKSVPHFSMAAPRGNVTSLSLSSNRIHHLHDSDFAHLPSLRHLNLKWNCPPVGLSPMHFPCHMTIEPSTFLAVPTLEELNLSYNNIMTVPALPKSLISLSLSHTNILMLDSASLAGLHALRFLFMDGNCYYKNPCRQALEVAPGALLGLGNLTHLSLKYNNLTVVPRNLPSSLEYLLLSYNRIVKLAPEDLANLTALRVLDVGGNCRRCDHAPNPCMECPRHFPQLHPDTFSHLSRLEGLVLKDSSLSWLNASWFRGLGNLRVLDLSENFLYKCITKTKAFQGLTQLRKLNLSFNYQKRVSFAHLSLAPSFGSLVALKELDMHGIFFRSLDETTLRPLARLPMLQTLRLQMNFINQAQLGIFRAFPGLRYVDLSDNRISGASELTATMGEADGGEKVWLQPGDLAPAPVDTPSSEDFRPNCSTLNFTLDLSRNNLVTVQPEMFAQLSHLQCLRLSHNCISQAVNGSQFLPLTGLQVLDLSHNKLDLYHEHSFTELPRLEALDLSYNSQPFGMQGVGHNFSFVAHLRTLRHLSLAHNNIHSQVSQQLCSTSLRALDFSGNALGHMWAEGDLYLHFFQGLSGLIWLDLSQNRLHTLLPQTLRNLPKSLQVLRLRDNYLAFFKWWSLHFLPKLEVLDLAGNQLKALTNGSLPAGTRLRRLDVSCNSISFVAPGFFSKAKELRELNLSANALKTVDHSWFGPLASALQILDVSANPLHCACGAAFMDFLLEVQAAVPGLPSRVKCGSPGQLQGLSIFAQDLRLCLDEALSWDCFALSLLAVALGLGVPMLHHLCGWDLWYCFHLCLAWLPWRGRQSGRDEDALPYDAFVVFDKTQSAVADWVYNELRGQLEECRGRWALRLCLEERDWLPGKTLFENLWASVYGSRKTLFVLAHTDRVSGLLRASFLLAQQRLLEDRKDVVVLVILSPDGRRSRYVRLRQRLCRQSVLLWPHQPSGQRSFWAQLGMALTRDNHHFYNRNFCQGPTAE
Put plainly: TLR9 inhibition reporter assay (HEK-Blue cells, SEAP reporter). As to conditions: HEK-Blue cells overexpressing human TLR9; stimulated with ODN2006 5 nM; 22 hour incubation; SEAP readout. The method in brief:
as §1

Where only a bound is given, the exact number is not on record here.

A word on the IC50: it is the concentration that inhibits the measured activity by half.

As for `CC(C)CN1C2CCC1CC(N1CCC(c3cc(F)c4nc(-c5ccc(S(C)(=O)=O)cc5)cn4c3)CC1)C2` (single isomer, unassigned) [Example 114, 8-fluoro-6-(1-(8-isobutyl-8-azabicyclo[3.2.1]octan-3-yl)piperidin-4-yl)-2-(4-(methylsulfonyl)phenyl)imidazo[1,2-a]pyridine], the IC50 worked out at 2000 nM against human TLR7, 17000 nM on human TLR8 and 66 nM against human TLR9.
As for `Cc1cc(-c2ccc(N3CCN(C4CCOCC4)CC3)cc2)cn2cc(-c3ccc(S(C)(=O)=O)cc3)nc12` [Example 104, 8-methyl-2-(4-(methylsulfonyl)phenyl)-6-(4-(4-(tetrahydro-2H-pyran-4-yl)piperazin-1-yl)phenyl)imidazo[1,2-a]pyridine], the IC50 is 5100 nM against human TLR7, above 50000 nM on human TLR8 and 451 nM against human TLR9.
For the compound `COc1ccc(-c2cn3cc(C4C[C@H]5CC[C@@H](C4)N5C4CCN(C(C)C)CC4)cc(C)c3n2)cc1OC` (mixture of isomers) [Example 30, 2-(3,4-dimethoxyphenyl)-6-(8-(1-isopropylpiperidin-4-yl)-8-azabicyclo[3.2.1]octan-3-yl)-8-methylimidazo[1,2-a]pyridine], the IC50 against human TLR7 is 1400 nM; at human TLR8 it was above 50000 nM; against human TLR9, 37 nM.
The matching figures for `COc1ccc(-c2nc3cc(C4CCN(C5CCN(CC(C)C)CC5)CC4)ccn3n2)cc1OC` [Example 61, 2-(3,4-dimethoxyphenyl)-7-(1′-isobutyl-[1,4′-bipiperidin]-4-yl)-[1,2,4]triazolo[1,5-a]pyridine]: 11000 nM, above 50000 nM and 1240 nM.
The matching figures for `Cc1cc(C2CCN(C3CCN(CC(C)C)CC3)CC2)cn2nc(-c3ccc(S(C)(=O)=O)cc3)nc12` [Example 163, 6-(1′-isobutyl-[1,4′-bipiperidin]-4-yl)-8-methyl-2-(4-(methylsulfonyl)phenyl)-[1,2,4]triazolo[1,5-a]pyridine]: above 50000 nM, above 50000 nM and 34 nM.
Consider `CC(C)CN1CCCC(N2CCC(c3cc(F)c4nc(-c5ccc(S(C)(=O)=O)cc5)cn4c3)CC2)CC1` (single isomer, unassigned) [Example 126, 8-fluoro-6-(1-(1-isobutylazepan-4-yl)piperidin-4-yl)-2-(4-(methylsulfonyl)phenyl) imidazo[1,2-a]pyridine], for which the IC50 turned out to be 7400 nM at human TLR7, 46700 nM against human TLR8 and 7.8 nM at human TLR9.
The matching figures for `COc1ccc(-c2cn3c(n2)CC[C@H](C2CCN(C4CC5CCC(C4)N5CC(C)C)CC2)C3)cc1OC` (single isomer, unassigned) [Example 75]: 2900 nM, above 25000 nM and 34 nM.
The matching figures for `COc1ccc(-c2cn3c(n2)CCC(C2CCN(C4CC5(C4)CN(CC(C)C)C5)CC2)C3)cc1OC` (single isomer, unassigned) [Example 53, 2-(3,4-dimethoxyphenyl)-6-(1-(2-isobutyl-2-azaspiro[3.3]heptan-6-yl)piperidin-4-yl)-5,6,7,8-tetrahydroimidazo[1,2-a]pyridine]: 2600 nM, above 50000 nM and 22 nM.
The matching figures for `COc1ccc(-c2cn3c(n2)CCC(C2CCN(C4CCN(C(=O)C(C)C)CC4)CC2)C3)cc1OC` (racemic) [Example 39, 1-(4-(2-(3,4-dimethoxyphenyl)-5,6,7,8-tetrahydroimidazo[1,2-a]pyridin-6-yl)-[1,4′-bipiperidin]-1′-yl)-2-methylpropan-1-one]: 43000 nM, above 50000 nM and 141 nM.
Consider `CC(C)CN1C2CCC1CC(N1CCC([C@H]3CCc4nc(-c5ccc(S(C)(=O)=O)cc5)cn4C3)CC1)C2` (single isomer, unassigned) [Example 80], for which the figures for the half-inhibitory concentration (IC50) on human TLR7, against human TLR8 and against human TLR9 were above 50000 nM, above 50000 nM and 52 nM, respectively.
Consider `COc1ccc(-c2cn3c(n2)CCC(C2CCN(C4CCN(CC(C)C)CC4)CC2)C3)cc1OC` (single isomer, unassigned) [Example 33, 2-(3,4-dimethoxyphenyl)-6-(1′-isobutyl-[1,4′-bipiperidin]-4-yl)-5,6,7,8-tetrahydroimidazo[1,2-a]pyridine], for which the IC50 was 3100 nM against human TLR7, above 50000 nM on human TLR8 and 56 nM against human TLR9.
The matching figures for `COc1ccc(-c2cn3c(n2)CC[C@H](C2CCN(C4CC5CCC(C4)N5CC(C)C)CC2)C3)cc1OC` (single isomer, unassigned) [Example 76]: 1600 nM, above 25000 nM and 52 nM.

Values taken from patent publication US12486267B2, “Imidazo[1,2-A]pyridine and [1,2,4]triazolo[1,5-A]pyridine derivatives as TLR9 inhibitors for the treatment of fibrosis” (BRISTOL-MYERS SQUIBB COMPANY, priority 2020, dated 2025).
